pEC50: −log10 of the molar value. “Also recorded” adds a separate entry of the source. Like-named read-outs stand apart in the source and are kept apart here.
What was measured:
[1] = Cell viability, CellTiter-Glo luminescent assay; conditions: human, CC50 Huh 7.5, uninfected Huh7.5, 2 days, CellTiter-Glo
Huh7.5 cells = test: Cell viability, CellTiter-Glo luminescent assay; conditions: for cell viability / cytotoxicity at the used concentration: Huh7.5
DENV-R2A = format: cell-based, Dengue virus; conditions: 50 μM
[2] = test system: ZIKV-R2A (strain FSS13025); test: microbe, parasite or virus in culture; format: cell-based; conditions: Zika virus, Huh7.5, 48 h
DENV2 16681s [3] = test: Infectious viral titer by plaque assay, wild-type DENV2 in Huh7.5 cells; format: cell-based, Dengue virus; conditions: 50 μM, MOI 0.1, Huh7.5, 2 days postinfection
SARS-CoV-2 = format: cell-based
WNV NY99 = test: Extracellular infectious titer by plaque assay, WNV in Huh7.5 cells; format: cell-based, West Nile virus; conditions: 50 μM, Huh7.5
sg-DENV-R2H = test: Resistance selection with selectable subgenomic replicon sg-DENV-R2H in Huh7.5 cells; format: cell-based, Dengue virus; conditions: 100 µM, hygromycin 500 µg/mL, 31 days of dual selection
DENV2 16681s [4] = test: Intracellular DENV vRNA (RT-qPCR) and NS4B (western blot) in infected Huh7.5 cells; format: cell-based, Dengue virus; conditions: 50 μM, MOI 0.1, Huh7.5, 2 days postinfection
[5] = biological target: ZIKV NS3/NS4B interaction (Zika virus, UniProt A0A024B7W1); test: Coimmunoprecipitation assay of NS3/NS4B interaction; conditions: unpublished data
HCV, strain JFH-1 = format: cell-based, hepatitis C virus; conditions: 50 μM, JFH-1-Luc, Huh7.5, 2 days
[6] = test system: DENV vesicle packets (VP); test: Replication-independent vesicle packet induction (pIRO-D) in Huh7/Lunet-T7 cells, TEM, western blot, immunofluorescence; conditions: 50 μM for 12 h, pIRO-D-transfected Huh7/Lunet-T7
ZIKV H/PF/2013 = test: Infectious viral titer by plaque assay, ZIKV in Huh7.5 cells; format: cell-based, Zika virus; conditions: 50 μM, MOI 0.1, Huh7.5, 2 days postinfection
[7] = test system: DENV-R2A (Rluc-expressing DENV, serotype 2 strain 16681); test: microbe, parasite or virus in culture; format: cell-based, Dengue virus
MHV-A59 = test: Infectious viral titer by plaque assay, MHV-A59 in DBT cells; format: cell-based, mouse hepatitis virus; conditions: 50 μM, MOI 0.0001, 1 day postinfection

Chain of ZIKV NS3/NS4B interaction (A0A024B7W1 1503-2119): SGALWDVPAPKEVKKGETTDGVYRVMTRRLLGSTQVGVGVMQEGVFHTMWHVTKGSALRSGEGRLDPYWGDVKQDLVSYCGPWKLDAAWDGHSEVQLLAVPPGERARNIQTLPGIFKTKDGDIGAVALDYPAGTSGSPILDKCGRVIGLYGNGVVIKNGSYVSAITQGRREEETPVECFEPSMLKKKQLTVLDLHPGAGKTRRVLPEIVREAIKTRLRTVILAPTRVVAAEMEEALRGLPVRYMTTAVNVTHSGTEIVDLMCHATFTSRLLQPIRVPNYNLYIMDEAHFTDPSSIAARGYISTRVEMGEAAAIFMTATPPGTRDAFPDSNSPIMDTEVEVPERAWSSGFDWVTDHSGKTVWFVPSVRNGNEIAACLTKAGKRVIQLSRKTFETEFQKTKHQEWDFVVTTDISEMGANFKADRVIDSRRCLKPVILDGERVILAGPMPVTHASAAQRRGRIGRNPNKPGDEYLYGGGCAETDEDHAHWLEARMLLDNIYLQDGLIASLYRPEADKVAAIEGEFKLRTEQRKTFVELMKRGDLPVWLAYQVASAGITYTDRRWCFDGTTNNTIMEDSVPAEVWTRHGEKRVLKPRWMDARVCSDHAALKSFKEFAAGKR
Chain of ZIKV NS3/NS4B interaction (A0A024B7W1 2270-2520): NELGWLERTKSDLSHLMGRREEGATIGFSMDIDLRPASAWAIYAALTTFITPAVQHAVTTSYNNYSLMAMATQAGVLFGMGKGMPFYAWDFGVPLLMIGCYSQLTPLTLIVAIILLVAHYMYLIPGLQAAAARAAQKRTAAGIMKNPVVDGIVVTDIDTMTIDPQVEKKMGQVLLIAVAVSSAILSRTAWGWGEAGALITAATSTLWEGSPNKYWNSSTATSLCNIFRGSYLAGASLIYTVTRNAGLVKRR

SMILES: CC(=O)c1ccc2cn[nH]c2c1 [Compound 6A1HI, 6-acetyl-1H-indazole]
- CC50 at 48 h [1]: > 150 µM
- cell viability / cytotoxicity at the used concentration (Huh7.5 cells; 50 μM): unaffected
- cell viability / cytotoxicity at the used concentration (Huh7.5 cells; 50 μM, listed as 6A1H1): without any cytotoxicity
- Cell viability (Fold DMSO) (Huh7.5 cells; 6A1HI analogues, test concentration = 50 µM, Huh7.5 cells): 0.93 Fold DMSO
- Cell viability (Fold DMSO) (Huh7.5 cells; Table 2, 6A1HI analogues, 50 μM, Huh7.5, 2 days): 0.93 fold DMSO
- Cell viability (fold DMSO) Mean (Huh7.5 cells; deconvolution screen, singletons, 50 µM, uninfected Huh7.5): 0.80 fold DMSO
- CC50 (Huh7.5 cells; read-out: CC50 Huh 7.5, uninfected Huh7.5, 2 days, CellTiter-Glo): 177 µM
- inhibitory activity when added after infection (DENV-R2A; added 4 h after infection): retain their full inhibitory activity
- inhibitory activity when added after infection (DENV-R2A; added up to 8 h after infection, read 2 days postinfection): retained a strong inhibitory activity
- pEC50 ([2]; read-out: EC50 ZIKV-R2A FSS13025): 4.16
- activity at 50 µM ([2]; read-out: ZIKV-R2A replication (fold DMSO) Mean): 29%
- decrease of infectious DENV particle production / DENV titers (DENV2 16681s [3]): more than 100 fold
- decrease of released infectious virions (plaque assay) (DENV2 16681s [3]): ~3 Log10-fold
- decrease of infectious DENV particle production / DENV titers (DENV2 16681s [3]; listed as 6A1H1): up to 1,000 fold
- anti-SARS-CoV-2 activity (reduction) (SARS-CoV-2): less than 10 fold
- impact on SARS-CoV-2 (betacoronavirus) replication (SARS-CoV-2; 50 μM, Huh7.5): Only moderate impacts (if any)
- impact on WNV replication (WNV NY99): Only moderate impacts (if any)
- selection of resistant cells (genetic barrier to resistance) (sg-DENV-R2H): unable to select resistant cells
- intracellular levels of DENV vRNA and NS4B (DENV2 16681s [4]): decrease
- formation and stability of ZIKV NS3/NS4B interaction [5]: do not inhibit
- impact on HCV replication (HCV, strain JFH-1): Only moderate impacts (if any)
- levels of viral protein NS3 (western blot) [6]: remained unchanged
- reduction in ZIKV viral titers (ZIKV H/PF/2013): 2 fold
- decrease of viral replication (DENV-R2A) ([7]; 50 μM, Huh7.5, 2 days postinfection, vs DMSO): 714 fold
- activity at 50 µM ([7]; Dengue virus, Huh7.5, 48 h, read-out: DENV-R2A replication (Fold DMSO), 6A1HI analogues, test concentration = 50 µM, Huh7.5 cells): 3.77%
- activity at 50 µM ([7]; Dengue virus, Huh7.5, 48 h, read-out: DENV-R2A replication (fold DMSO) Mean, deconvolution screen, singletons, 50 µM, Huh7.5, 2 days postinfection): 0.244%
- activity at 50 µM ([7]; Dengue virus, Huh7.5, 48 h, read-out: DENV-R2A replication (fold DMSO), Table 2, 6A1HI analogues, 50 μM, Huh7.5, 2 days postinfection): 4%
- pEC50 ([7]; Dengue virus, Huh7.5, 48 h, read-out: EC50 DENV-R2A): 5.19
- impact on MHV replication (MHV-A59): Only moderate impacts (if any); also recorded: did not impede

From paper PMC9933715 (Antimicrobial Agents and Chemotherapy, 2023)
